The record followed here is patent US10000765B2, “Gene encoding cytochrome P450, and use thereof” (NATIONAL INSTITUTE OF AGROBIOLOGICAL SCIENCES, priority 2011, dated 2018).

What all share (type): cell-based, Oryza sativa
Data set [1] relates to Rice (Nipponbare) calluses transformed with pCAMBIA1390-KasCYP72A31. As to the kind of experiment: Redifferentiation and rooting test, rice callus transformed with pCAMBIA1390-KasCYP72A31. On the procedure: (§1) After selective culturing, the callus was transplanted onto a rice redifferentiation medium RE-III (containing 50 ppm hygromycin or 0.25 μM bispyribac sodium), cultured at 27 degree C. under 16L/8D conditions, and led to redifferentiate. The callus was plated after 2 weeks. At additional about 2 to 3 weeks, a redifferentiated, transformed rice (T0) was obtained. Once a differentiated shoot and/or root had appeared, the rice was transplanted onto a hormone-free (HF) medium (containing 50 ppm hygromycin or 0.25 μM bispyribac sodium).
(§2) According to Example 5, an HptII::35Spro::Kasalath CYP72A31::Tnos vector plasmid (pCAMBIA1390-KasCYP72A31, a kasCYP72A31 overexpression construct) or, as controls, an HptII::35Spro::sGFP::Tnos vector plasmid (pCAMBIA1302-sGFP, an sGFP overexpression construct) or an OsALS (W548L/S627I)::OsAct-1pro::sGFP::Tnos vector plasmid (pSTARA-sGFP, a BS-resistant construct) was introduced into a rice variety (a cultivar: Nipponbare) by using an Agrobacterium method. According to a schedule designated in FIG. 12A), transformed calluses were selected with 50 ppm hygromycin. […] Of all the calluses, 43 calluses were transplanted onto a redifferentiation medium containing 0.25 μM BS.
Rice (Nipponbare) calluses transformed with a pCAMBIA1390-KasCYP72A31 construct in Example 8 were obtained by 50 ppm hygromycin selection. When these calluses were transplanted onto a redifferentiation medium containing 50 ppm hygromycin, shoots and roots were differentiated from the callus at a redifferentiation efficiency of 95% (38/40 calluses). Subsequently, 25 redifferentiation calluses transformed with a pCAMBIA1390-KasCYP72A31 construct were transplanted onto a hormone-free medium containing 1 μM BS. As a result, 7 calluses had extending roots (a root extension rate of 28%. FIG. 15).

Data set [2] relates to Nipponbare calluses overexpressing Kasalath-derived or Nipponbare-derived CYP72A32 or CYP72A33. Kind of data set: Callus growth test on BS-containing medium, CYP72A32 or CYP72A33 overexpression constructs. An excerpt:
According to Example 5, an HptII::35Spro::Kasalath CYP72A32::Tnos vector plasmid (pCAMBIA1390-KasCYP72A32, a kasCYP72A32 overexpression construct), an HptII::35 Spro::Kasalath CYP72A33::Tnos vector plasmid (pCAMBIA1390-KasCYP72A33, a kasCYP72A33 overexpression construct), an HptII::35Spro::Nipponbare CYP72A32::Tnos vector plasmid (pCAMBIA1390-nbCYP72A32, an nbCYP72A32 overexpression construct), or an HptII::35Spro::Nipponbare CYP72A33::Tnos vector plasmid (pCAMBIA1390-nbCYP72A33, an nbCYP72A33 overexpression construct) was introduced into a rice variety (a cultivar: Nipponbare) by using an Agrobacterium method. Transformed calluses selected with 50 ppm hygromycin were isolated, and transplanted onto a bispyribac-sodium (BS)-containing medium to examine callus growth.

The subject of data set [3] is Nipponbare and Kasalath calluses with CYP72A31 overexpression construct. Kind of data set: Callus growth test on BS-containing medium, Kasalath CYP72A31 overexpression construct. The settings on record: medium containing 0.25, 0.5, or 0.75 μM BS. The source says: According to Example 5, an HptII::35Spro::Kasalath CYP72A31::Tnos vector plasmid (pCAMBIA1390-KasCYP72A31, a kasCYP72A31 overexpression construct) or, as a control, an HptII::35Spro::sGFP::Tnos vector plasmid (pCAMBIA1390-sGFP, an sGFP overexpression construct) was introduced into a rice variety (cultivars: Nipponbare and Kasalath) by using an Agrobacterium method. Transformed calluses selected with 50 ppm hygromycin were isolated, and transplanted onto a bispyribac-sodium (BS)-containing medium to examine callus growth.

Data set [4] deals with Rice (Nipponbare) calluses transformed with pCAMBIA1302-sGFP. As to the kind of experiment: Redifferentiation and rooting test, control rice callus transformed with pCAMBIA1302-sGFP. On the procedure:
as §1, §2
Rice (Nipponbare) calluses transformed with a pCAMBIA1390-KasCYP72A31 construct in Example 8 were obtained by 50 ppm hygromycin selection. […]

In data set [5] the test system is rice calluses transformed with pSTARA-sGFP. Kind of data set: Selection of drug-resistant callus in N6D medium, pSTARA-sGFP. As to conditions: N6D medium containing 0.25 μM BS. The method, then: Rice transformed with pCAMBIA1390-KasCYP72A31 was used to examine whether a Kasalath-derived CYP72A31 gene was able to be used as a selection marker for transformation with BS as a selection reagent. According to Example 5, rice (Nipponbare) was transformed with pCAMBIA1390-KasCYP72A31 or pSTARA-sGFP by using an Agrobacterium method.
Rice (Nipponbare) calluses transformed with pCAMBIA1390-KasCYP72A31 were cultured for 4 weeks in an N6D medium containing 0.1 or 0.25 μM BS or an N6D medium containing 50 ppm hygromycin to select drug-resistant calluses. Also, rice calluses transformed with pSTARA-sGFP were selected in a similar manner in an N6D medium containing 0.25 μM BS.

Where [6] appears, read: hormone-free medium containing 1 μM BS.
[7] abbreviates: redifferentiation medium containing 0.25 μM BS.

In the case of `COc1cc(OC)nc(Oc2cccc(Oc3nc(OC)cc(OC)n3)c2C(=O)O)n1` [BS, bispyribac sodium], the “Calluses with extending roots of all redifferentiation calluses” value in data set [1] (hormone-free medium containing 0.25 μM BS) was found to be 73%. The molecule also had a Root extension rate in data set [1] (setting [6]) of 28%. Also, the Redifferentiation efficiency in data set [1] (setting [7]) worked out at 91%. Besides, the results for the Callus growth result in data set [2] and in data set [3] were “not grown” and “demonstrated to grow”, respectively. Further, in data set [4] (setting [6]), the “Rooting and survival of plant bodies” value is reported as “killed the plant bodies”. Besides, the Redifferentiation entry in data set [4] (setting [7]) is given as “found not to include those redifferentiated”. Further, the “Selection efficiency (ratio of the resulting transformed calluses/all calluses)” value in data set [5] amounted to 82%.
